Results reported in article PMC3880643 (Journal of medicinal chemistry, 2013).

Assays:
[1] = In vitro metabolic stability in mouse liver microsomes
[2] = test system: 13 other methyltransferases; type: biochemical; conditions: read-out: IC50 against 13 other methyltransferases
[3] = target: PRC2 – EZH2 (Homo sapiens, UniProt Q15910); test: biochemical
[4] = test system: panel of 50 representative kinases; test: Kinase selectivity panel; type: biochemical; conditions: at 10,000 nM
[5] = test system: 44 GPCRs, transporters, and ion channels; type: binding
[6] = target: T1, G9a (Homo sapiens, UniProt Q96KQ7); test: Competition of inhibitor with cofactor SAM; type: biochemical; conditions: Km app of SAM versus inhibitor concentration
T1 sequence (Q96KQ7 1-1210): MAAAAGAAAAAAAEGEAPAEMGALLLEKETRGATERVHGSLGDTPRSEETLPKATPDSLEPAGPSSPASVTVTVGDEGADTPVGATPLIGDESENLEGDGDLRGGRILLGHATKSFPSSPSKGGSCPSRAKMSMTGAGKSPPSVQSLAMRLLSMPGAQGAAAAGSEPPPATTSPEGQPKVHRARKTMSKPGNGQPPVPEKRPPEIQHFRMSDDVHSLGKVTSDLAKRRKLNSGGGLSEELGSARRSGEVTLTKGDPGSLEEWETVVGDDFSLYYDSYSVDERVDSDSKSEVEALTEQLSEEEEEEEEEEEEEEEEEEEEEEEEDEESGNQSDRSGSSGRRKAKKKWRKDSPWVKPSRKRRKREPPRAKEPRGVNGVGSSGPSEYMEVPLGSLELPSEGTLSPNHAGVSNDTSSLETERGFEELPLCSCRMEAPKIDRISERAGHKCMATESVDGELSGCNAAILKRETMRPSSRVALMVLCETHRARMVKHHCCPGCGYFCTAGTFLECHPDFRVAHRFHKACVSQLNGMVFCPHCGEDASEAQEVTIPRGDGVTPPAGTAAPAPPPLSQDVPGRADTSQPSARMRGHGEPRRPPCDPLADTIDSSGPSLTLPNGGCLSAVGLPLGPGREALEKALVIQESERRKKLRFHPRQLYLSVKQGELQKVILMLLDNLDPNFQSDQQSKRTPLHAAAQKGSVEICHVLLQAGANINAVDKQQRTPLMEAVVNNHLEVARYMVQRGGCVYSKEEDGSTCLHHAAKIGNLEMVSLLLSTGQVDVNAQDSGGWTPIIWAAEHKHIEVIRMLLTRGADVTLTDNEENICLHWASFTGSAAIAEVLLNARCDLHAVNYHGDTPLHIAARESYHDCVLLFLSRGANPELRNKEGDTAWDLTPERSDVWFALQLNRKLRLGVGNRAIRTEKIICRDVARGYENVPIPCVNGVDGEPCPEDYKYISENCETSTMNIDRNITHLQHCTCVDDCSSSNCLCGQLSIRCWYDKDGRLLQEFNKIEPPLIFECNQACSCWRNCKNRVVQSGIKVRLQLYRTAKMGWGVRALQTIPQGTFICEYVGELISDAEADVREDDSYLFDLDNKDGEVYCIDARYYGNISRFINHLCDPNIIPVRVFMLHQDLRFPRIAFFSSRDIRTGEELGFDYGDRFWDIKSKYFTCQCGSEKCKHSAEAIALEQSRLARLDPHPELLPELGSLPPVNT

[7] = Resazurin cell toxicity assay; type: cell-based; conditions: human, U2OS cells
[8] = Resazurin cell toxicity assay; type: cell-based; conditions: human, PANC-1 cells, Cell Toxicity EC50, PANC-1 cells
[9] = test system: PANC-1 cells; test: Clonogenicity assay; type: cell-based; conditions: 2 weeks, 0.5 or 1 µM
[10] = test system: MDA-MB-231 cells; test: Clonogenicity assay; type: cell-based; conditions: 2 weeks, 0.5 or 1 µM
[11] = target: T1, G9a; conditions: Km app of peptide versus inhibitor concentration
[12] = Resazurin; conditions: human
[13] = test system: MDA-MB-231 cells; test: Resazurin; conditions: MDA-MB-231 cells

Sequence of PRC2 – EZH2 (Q15910 whole entry): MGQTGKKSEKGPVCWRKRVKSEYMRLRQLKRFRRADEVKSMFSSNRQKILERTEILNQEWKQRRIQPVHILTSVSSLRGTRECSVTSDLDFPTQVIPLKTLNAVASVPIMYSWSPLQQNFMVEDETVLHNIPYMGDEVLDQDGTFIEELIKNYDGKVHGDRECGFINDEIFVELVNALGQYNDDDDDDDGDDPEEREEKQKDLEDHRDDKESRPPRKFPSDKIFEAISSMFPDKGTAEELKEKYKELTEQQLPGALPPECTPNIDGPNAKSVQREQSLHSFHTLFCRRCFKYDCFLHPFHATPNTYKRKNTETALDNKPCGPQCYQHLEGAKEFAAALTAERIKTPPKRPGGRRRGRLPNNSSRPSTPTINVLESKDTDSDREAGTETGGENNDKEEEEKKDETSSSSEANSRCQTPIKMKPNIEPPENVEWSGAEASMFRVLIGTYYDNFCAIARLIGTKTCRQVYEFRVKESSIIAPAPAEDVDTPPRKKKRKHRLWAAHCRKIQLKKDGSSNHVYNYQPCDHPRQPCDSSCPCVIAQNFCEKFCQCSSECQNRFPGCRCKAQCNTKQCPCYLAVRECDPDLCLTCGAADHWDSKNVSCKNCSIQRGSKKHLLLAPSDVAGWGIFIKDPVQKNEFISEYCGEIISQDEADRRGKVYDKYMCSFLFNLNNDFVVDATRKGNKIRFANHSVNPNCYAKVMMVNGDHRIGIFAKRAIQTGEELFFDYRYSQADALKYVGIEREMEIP
Sequence of PRC2 – EZH2 (O75530 whole entry, further chain): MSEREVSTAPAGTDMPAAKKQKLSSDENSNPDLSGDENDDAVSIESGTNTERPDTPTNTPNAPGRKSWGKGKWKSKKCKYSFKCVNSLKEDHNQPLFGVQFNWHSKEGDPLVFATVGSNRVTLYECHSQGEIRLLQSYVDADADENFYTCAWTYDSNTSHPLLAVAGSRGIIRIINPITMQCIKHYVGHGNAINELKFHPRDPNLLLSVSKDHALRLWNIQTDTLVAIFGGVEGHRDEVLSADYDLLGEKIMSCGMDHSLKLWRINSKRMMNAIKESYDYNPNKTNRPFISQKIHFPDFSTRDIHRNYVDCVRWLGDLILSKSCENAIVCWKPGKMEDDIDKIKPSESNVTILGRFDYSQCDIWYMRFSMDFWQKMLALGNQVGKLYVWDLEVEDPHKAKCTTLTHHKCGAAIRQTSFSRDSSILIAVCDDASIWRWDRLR
Sequence of PRC2 – EZH2 (Q15022 whole entry, further chain): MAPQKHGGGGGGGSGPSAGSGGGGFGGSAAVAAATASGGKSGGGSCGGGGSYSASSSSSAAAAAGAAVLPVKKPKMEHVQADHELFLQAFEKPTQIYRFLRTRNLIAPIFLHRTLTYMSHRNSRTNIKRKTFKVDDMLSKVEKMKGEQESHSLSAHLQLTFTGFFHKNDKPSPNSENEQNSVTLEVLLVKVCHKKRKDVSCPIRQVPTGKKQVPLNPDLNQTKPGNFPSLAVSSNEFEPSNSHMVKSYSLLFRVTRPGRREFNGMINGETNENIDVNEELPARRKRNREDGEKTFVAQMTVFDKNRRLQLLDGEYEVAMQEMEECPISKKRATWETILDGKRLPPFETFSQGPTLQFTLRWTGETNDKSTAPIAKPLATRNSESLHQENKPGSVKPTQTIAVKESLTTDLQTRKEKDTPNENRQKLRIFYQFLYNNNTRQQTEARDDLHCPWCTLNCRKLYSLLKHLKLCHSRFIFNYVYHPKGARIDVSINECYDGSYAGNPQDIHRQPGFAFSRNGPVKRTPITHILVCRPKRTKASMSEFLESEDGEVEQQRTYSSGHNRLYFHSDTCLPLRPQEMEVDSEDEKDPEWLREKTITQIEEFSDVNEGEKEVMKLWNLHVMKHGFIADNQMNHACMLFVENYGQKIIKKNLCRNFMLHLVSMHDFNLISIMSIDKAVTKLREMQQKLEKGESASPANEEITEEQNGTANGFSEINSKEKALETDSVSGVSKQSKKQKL

## COc1cc2c(NC3CCN(C(C)C)CC3)nc(C3CCCCC3)nc2cc1OCCCN1CCCC1 [Compound 5, reference compound]
[1]
  CLint: 1.0 mL/min/g liver

## COc1cc2c(NC3CCN(C(C)C)CC3)nc(N3CCC(F)(F)CC3)nc2cc1OCCCN1CCCC1 [Compound 7, 2-(4,4-Difluoropiperidin-1-yl)-N-(1-isopropylpiperidin-4-yl)-6-methoxy-7-(3-(pyrrolidin-1-yl)propoxy)quinazolin-4-amine]
[2]
  IC50: > 50 µM
[3]
  IC50: > 5 µM
[4]
  Inhibition of panel of 50 representative kinases: less than 20%
[5]
  Inhibition against 5 targets of the 44-target panel: > 50%
  Inhibition against 39 targets of the 44-target panel: less than 50%
[6]
  Mechanism of action versus cofactor SAM: non-competitive with the cofactor SAM
[7]
  EC50 at 48 h: > 3 µM
[8]
  EC50 at 48 h: > 3 µM
[9]
  Effect on clonogenicity: reduced clonogenicity in PANC-1 cells in a concentration-dependent manner
[10]
  Effect on clonogenicity: no effect on clonogenicity
[11]
  Mechanism of action versus peptide substrate: competitive with the peptide substrate
[1]
  CLint: 0.5 mL/min/g liver

## COc1cc2c(NC3CCN(C(C)C)CC3)nc(N3CCOCC3)nc2cc1OCCCN1CCCC1 [Compound 13, N-(1-Isopropylpiperidin-4-yl)-6-methoxy-2-morpholino-7-(3-(pyrrolidin-1-yl)propoxy)quinazolin-4-amine]
[1]
  CLint: 0.7 mL/min/g liver

## COc1cc2c(NC3CCN(C(C)C)CC3)nc(N3CC(F)(F)C(F)(F)C3)nc2cc1OCCCN1CCCC1 [Compound 15, N-(1-Isopropylpiperidin-4-yl)-6-methoxy-7-(3-(pyrrolidin-1-yl)propoxy)-2-(3,3,4,4-tetrafluoropyrrolidin-1-yl)quinazolin-4-amine]
[1]
  CLint: < 0.5 mL/min/g liver

## COc1cc2c(NC3CCN(C(C)C)CC3)nc(N3CCCCC3)nc2cc1OCCCN1CCCC1 [Compound 16]
[12]
  EC50 at 48 h: 7 µM

## COc1cc2c(NC3CCN(C(C)C)CC3)nc(N3CCCCCC3)nc2cc1OCCCN1CCCC1 [Compound 17]
[13]; read-out: Cell Toxicity EC50, 48 h
  EC50: 5.7 µM

## COc1cc2c(NC3CCN(C4CC4)CC3)nc(N3CCS(=O)(=O)CC3)nc2cc1OCCCN1CCCC1 [Compound 19, 4-(4-((1-Cyclopropylpiperidin-4-yl)amino)-6-methoxy-7-(3-(pyrrolidin-1-yl)propoxy)quinazolin-2-yl)thiomorpholine 1,1-dioxide]
[12]
  EC50 at 48 h: > 50 µM

## COc1cc2c(NC3CCN(C(C)C)CC3)nc(C3CCOCC3)nc2cc1OCCCN1CCCC1 [Compound 22, N-(1-Isopropylpiperidin-4-yl)-6-methoxy-7-(3-(pyrrolidin-1-yl)propoxy)-2-(tetrahydro-2H-pyran-4-yl)quinazolin-4-amine]
[12]
  EC50 at 48 h: > 50 µM
[13]; toxicity EC50 divided by functional IC50
  Tox/function Ratio: > 130
[1]
  CLint: 4.7 mL/min/g liver
